This experiment deals with P388 leukemia ip, CD2F1 mice, survival T/C. The experiment can be described thus: NCI In Vivo Anticancer Drug Screen. Data for tumor model P388 Leukemia (intraperitoneal) in CD2F1 (CDF1) mice. Conditions: endpoint: median survival time, higher = longer survival. The gist of the method: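 Mice carrying the transplanted tumor received test compound or vehicle. Survival was recorded in each group, and the value is the treated-group measurement divided by that of the vehicle-treated control group.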

The mark [1] stands for this setting: dose: 50.0 mg/kg/injection, schedule: Q01DX009 (ip), vehicle: saline with Tween-80.
Setting [2] is: dose: 100.0 mg/kg/injection, schedule: Q01DX009 (ip), vehicle: saline with Tween-80.
[3] abbreviates: dose: 200.0 mg/kg/injection, schedule: Q01DX009 (ip), vehicle: saline with Tween-80.
Setting [4] is: dose: 100.0 mg/kg/injection, schedule: Q04DX002 (ip), vehicle: saline with Tween-80.
Where [5] appears, read: dose: 200.0 mg/kg/injection, schedule: Q04DX002 (ip), vehicle: saline with Tween-80.
Setting [6] is: dose: 50.0 mg/kg/injection, schedule: Q01DX005 (ip), vehicle: saline with Tween-80.
Where [7] appears, read: dose: 100.0 mg/kg/injection, schedule: Q01DX005 (ip), vehicle: saline with Tween-80.
The mark [8] stands for this setting: dose: 100.0 mg/kg/injection, schedule: Q04DX003 (ip), vehicle: saline with Tween-80.
[9] abbreviates: dose: 60.0 mg/kg/injection, schedule: Q01DX005 (ip), vehicle: saline with Tween-80.
Setting [10] is: dose: 120.0 mg/kg/injection, schedule: Q01DX005 (ip), vehicle: saline with Tween-80.
Setting [11] is: dose: 200.0 mg/kg/injection, schedule: Q01DX005 (ip), vehicle: saline with Tween-80.
Where [12] appears, read: dose: 25.0 mg/kg/injection, schedule: Q01DX005 (ip), vehicle: saline with Tween-80.

Values joined by “and” are separate entries in the source; they are usually repeats but may differ in a detail not shown here. Equal values may be shown once. Inconclusive results and toxic doses are left out.

For `COCC(O)Cn1ccnc1[N+](=O)[O-]` (configuration not stated), the T/C is 100 % of control (dose: 1.0 mg/kg/injection, schedule: Q01DX009 (ip), vehicle: saline + alcohol); 104 % of control (dose: 1.0 mg/kg/injection, schedule: Q01DX009 (ip), vehicle: saline); 98 % of control (dose: 2.0 mg/kg/injection, schedule: Q01DX009 (ip), vehicle: saline + alcohol); 109 % of control (dose: 2.0 mg/kg/injection, schedule: Q01DX009 (ip), vehicle: saline); 120 % of control (dose: 4.0 mg/kg/injection, schedule: Q01DX009 (ip), vehicle: saline); 111 % of control (dose: 8.0 mg/kg/injection, schedule: Q01DX009 (ip), vehicle: saline). Besides, the T/C is, setting by setting: (dose: 16.0 mg/kg/injection, schedule: Q01DX009 (ip), vehicle: saline) 108 % of control; (dose: 32.0 mg/kg/injection, schedule: Q01DX009 (ip), vehicle: saline) 112 % of control; (dose: 64.0 mg/kg/injection, schedule: Q01DX009 (ip), vehicle: saline + alcohol) 124 % of control; (dose: 64.0 mg/kg/injection, schedule: Q01DX009 (ip), vehicle: saline) 102 % of control; (dose: 128.0 mg/kg/injection, schedule: Q01DX009 (ip), vehicle: saline + alcohol) 98 % of control; (dose: 128.0 mg/kg/injection, schedule: Q01DX009 (ip), vehicle: saline) 111 % of control. Besides, the T/C (dose: 250.0 mg/kg/injection, schedule: Q01DX001 (ip), vehicle: saline + alcohol) is 97 % of control; the T/C (dose: 256.0 mg/kg/injection, schedule: Q01DX009 (ip), vehicle: saline + alcohol) is 91 % of control; the T/C (dose: 256.0 mg/kg/injection, schedule: Q01DX009 (ip), vehicle: saline) is 111 % of control; the T/C (dose: 500.0 mg/kg/injection, schedule: Q01DX001 (ip), vehicle: saline + alcohol) is 100 % of control; the T/C (dose: 512.0 mg/kg/injection, schedule: Q01DX009 (ip), vehicle: saline) is 112 % of control; the T/C (dose: 600.0 mg/kg/injection, schedule: Q01DX005 (ip), vehicle: saline) was 114 % of control. Besides, the T/C is 102 % of control (dose: 1000.0 mg/kg/injection, schedule: Q01DX001 (ip), vehicle: saline + alcohol); 105 % of control (dose: 1000.0 mg/kg/injection, schedule: Q01DX005 (ip), vehicle: saline); 66 % of control (dose: 2000.0 mg/kg/injection, schedule: Q01DX001 (ip), vehicle: saline + alcohol).

For `O=S(=O)(Cc1ccccc1)/N=C/c1ccccc1`, the T/C reads like this: under setting [1], 103 % of control and 105 % of control; under setting [2], 99 % of control and 105 % of control; under setting [3], 107 % of control and 123 % of control.

For `Cc1nc2ccc(NC(=O)NC(=O)c3c(F)cccc3F)cc2s1`, the T/C (dose: 50.0 mg/kg/injection, schedule: Q04DX002 (ip), vehicle: saline with Tween-80) is 92 % of control; the T/C under setting [4] is 92 % of control; the T/C under setting [5] was 89 % of control.

Turning to `O=C1C2=C(Nc3cc(Cl)ccc3N2)OC1c1ccc(C2OC3=C(Nc4ccc(Cl)cc4N3)C2=O)cc1` (configuration not stated), the T/C was 104 % of control (dose: 60.0 mg/kg/injection, schedule: Q01DX005 (ip), vehicle: Klucel (hydroxypropylcellulose) (HPC)); 111 % of control (dose: 120.0 mg/kg/injection, schedule: Q01DX005 (ip), vehicle: Klucel (hydroxypropylcellulose) (HPC)); 105 % of control (dose: 240.0 mg/kg/injection, schedule: Q01DX005 (ip), vehicle: Klucel (hydroxypropylcellulose) (HPC)).

Consider `CC(=O)Oc1cccc2c1CC(C[Se]c1ccccc1)C(=O)O2` (configuration not stated), for which the T/C runs as follows: under setting [6], 94 % of control; under setting [7], 89 % of control.

For `ClCc1ccc(CCl)c(Cl)c1Cl`, the T/C is, setting by setting: (dose: 25.0 mg/kg/injection, schedule: Q01DX009 (ip), vehicle: saline with Tween-80) 100 % of control; (dose: 25.0 mg/kg/injection, schedule: Q04DX003 (ip), vehicle: saline with Tween-80) 100 % of control; under setting [1], 95 % of control; (dose: 50.0 mg/kg/injection, schedule: Q04DX003 (ip), vehicle: saline with Tween-80) 95 % of control; under setting [2], 95 % of control; under setting [8], 95 % of control.

Consider `CCOP(=O)(O)OCC.[Ga]`, for which the T/C under setting [4] is 106 % of control; the T/C under setting [5] was 103 % of control; the T/C (dose: 400.0 mg/kg/injection, schedule: Q04DX002 (ip), vehicle: saline with Tween-80) is 97 % of control.

For `COC(=O)c1ccccc1OC(C)=O`, the T/C reads like this: (dose: 25.0 mg/kg/injection, schedule: Q01DX009 (ip), vehicle: suspension in saline) 99 % of control; (dose: 50.0 mg/kg/injection, schedule: Q01DX009 (ip), vehicle: suspension in saline) 99 % of control; (dose: 100.0 mg/kg/injection, schedule: Q01DX009 (ip), vehicle: suspension in saline) 96 % of control; (dose: 200.0 mg/kg/injection, schedule: Q01DX009 (ip), vehicle: suspension in saline) 100 % of control.

Consider `O=C(O)C(=O)O.[Mn]`, for which the T/C under setting [8] is 86 % of control.

In the case of `CSc1nc2c(nnn2C2OCC(O)C(O)C2O)c(=O)[nH]1` (configuration not stated), the T/C runs as follows: under setting [9], 93 % of control; under setting [10], 93 % of control; (dose: 240.0 mg/kg/injection, schedule: Q01DX005 (ip), vehicle: saline with Tween-80) 86 % of control.

For `CCN(CC)C(=S)Cl`, the T/C is, setting by setting: under setting [6], 107 % of control; under setting [7], 106 % of control; under setting [11], 101 % of control.

`COc1ccc(C(=O)N/N=C(\C)[C@]2(O)Cc3c(O)c4c(c(O)c3[C@@H](OC3CC(N)C(O)C(C)O3)C2)C(=O)c2c(OC)cccc2C4=O)cc1` (some centres not stated): the T/C runs as follows: (dose: 0.12 mg/kg/injection, schedule: Q01DX009 (ip), vehicle: water) 119 % of control; (dose: 0.5 mg/kg/injection, schedule: Q01DX009 (ip), vehicle: water) 151 % of control; (dose: 1.0 mg/kg/injection, schedule: Q01DX009 (ip), vehicle: water) 158 % of control and 164 % of control; (dose: 2.0 mg/kg/injection, schedule: Q01DX009 (ip), vehicle: water) 174 % of control and 190 % of control; (dose: 4.0 mg/kg/injection, schedule: Q01DX009 (ip), vehicle: water) 181 % of control and 211 % of control; (dose: 6.0 mg/kg/injection, schedule: Q04DX003 (ip), vehicle: water) 112 % of control. Also, the T/C is, setting by setting: (dose: 12.0 mg/kg/injection, schedule: Q04DX003 (ip), vehicle: water) 121 % of control; (dose: 24.0 mg/kg/injection, schedule: Q04DX003 (ip), vehicle: water) 166 % of control; (dose: 48.0 mg/kg/injection, schedule: Q04DX003 (ip), vehicle: water) 118 % of control.

Take `CCCC(O)(CC)/C(C)=N/O` (configuration not stated): the T/C is 96 % of control under setting [1], 91 % of control under setting [2] and 91 % of control under setting [3].

For `CN(C)c1ccc2[nH]c3c(C(N)=O)cc(=O)c(=O)c=3oc2c1`, the T/C is 100 % of control and 107 % of control under setting [12]; 98 % of control and 100 % of control (2×) under setting [6]; 100 % of control and 120 % of control and 97 % of control under setting [7]; 98 % of control and 107 % of control and 117 % of control under setting [11].

With `Cc1ccc(C(C)C)c(OCCN)c1`, the T/C reads like this: (dose: 6.25 mg/kg/injection, schedule: Q01DX009 (ip), vehicle: saline) 112 % of control; (dose: 12.5 mg/kg/injection, schedule: Q01DX009 (ip), vehicle: saline) 110 % of control; (dose: 25.0 mg/kg/injection, schedule: Q01DX009 (ip), vehicle: saline) 107 % of control; (dose: 50.0 mg/kg/injection, schedule: Q01DX009 (ip), vehicle: saline) 94 % of control.

For `Cc1cc(N=Nc2ccc(-c3ccc(N=Nc4ccc(O)c(C(=O)O)c4)cc3)cc2)c(N)c(N=Nc2ccc(C(=O)Nc3ccc(S(=O)(=O)O)cc3)cc2)c1N`, the T/C runs as follows: (dose: 6.25 mg/kg/injection, schedule: Q01DX005 (ip), vehicle: saline with Tween-80) 100 % of control; (dose: 12.5 mg/kg/injection, schedule: Q01DX005 (ip), vehicle: saline with Tween-80) 101 % of control; under setting [12], 101 % of control.

Take `Nc1nc(N)c2c(n1)NCN(OCCOc1ccc(Cl)cc1Cl)C2`: the T/C is, setting by setting: under setting [9], 105 % of control; under setting [10], 90 % of control.

The values are drawn from PubChem BioAssay AID330 (DTP/NCI, 2004).
